These results are taken from ChEMBL document CHEMBL6178022, “Discovery and Optimization of Potent PROTAC Degraders of Phosphoinositide 3-Kinase with Significant in Vivo Anticancer Efficacy” (J Med Chem, 2025).

pIC50: −log10 of the molar value. Bounds are passed on as bounds.

Assay [1] deals with T47D. The assay is described as follows: Antiproliferative activity against human T47D cells assessed as inhibition of cell viability incubated for 3 days by MTT/CTG assay. The conditions noted are these: 72 h.
Assay [2] relates to LNCaP. In words: Antiproliferative activity against human LNCaP cells assessed as inhibition of cell viability incubated for 3 days by MTT/CTG assay. The following applies: 72 h.
Assay [3] deals with PC-3. In words: Antiproliferative activity against human PC-3 cells assessed as inhibition of cell viability incubated for 3 days by MTT/CTG assay. The following applies: PC-3, 72 h.
In assay [4] the test system is MDA-MB-453. The assay is described as follows: Antiproliferative activity against human MDA-MB-453 cells assessed as inhibition of cell viability incubated for 3 days by MTT/CTG assay. The following applies: MDA-MB-453, 72 h.
For assay [5], the system named is Pfeiffer. In words: Antiproliferative activity against human Pfeiffer cells assessed as inhibition of cell viability incubated for 3 days by MTT/CTG assay. The following applies: 72 h.
Assay [6] relates to HGC-27. The assay is described as follows: Antiproliferative activity against human HGC-27 cells assessed as inhibition of cell viability incubated for 3 days by MTT/CTG assay. The conditions noted are these: HGC-27, 72 h.
Assay [7] deals with AGS. In words: Antiproliferative activity against human AGS cells assessed as inhibition of cell viability incubated for 3 days by MTT/CTG assay. The conditions noted are these: 72 h.

For `Cc1nc(NC(=O)N2CCC[C@H]2C(N)=O)sc1-c1ccnc(C(C)(C)C(F)(F)F)c1` [ALPELISIB], the pIC50 was 6.44 in assay [1]; 4.80 in assay [2]; 4.88 in assay [3]; 6.11 in assay [4]; less than 4.30 in assay [5]; 5.72 in assay [6]. In addition, the negative-log IC50 (pIC50) in assay [7] is 6.28.
